Test results from patent US4861897A, “2-Aryloxyalkylaminobenzoxazoles and 2-aryloxyalkylaminobenzothiazoles” (Ortho Pharmaceutical Corporation, priority 1987, dated 1989).
Read-outs that look alike come from different tables or passages of the source.

Assays:
[1] = tested on: histamine stimulated parietal cell; experiment: Isolated parietal cell assay, inhibition of 14C-aminopyrine accumulation, histamine stimulated; assay type: cell-based, rabbit; details: Example 48, 37° C., read-out: IC50 vhist (inhibition of 14C-AP accumulation in histamine stimulated parietal cell)
Method: (§1) Isolated Parietal Cell Assay
(§2) The isolated parietal cell assay was conducted using the procedures of Batzri, S. et al., Biochemica et Biophysica Acta 508, 328 (1978) and Soll, A. H. Am. J. Physiol. 238, G366 (1980). Basically, parietal cells were isolated from the fundic mucosa of rabbit stomachs by a four-stage collagenase digestion process. The supernatant fractions from the last two stages of this process contain the individual parietal cells. This cell suspension was centrifuged and reconstituted in a modified Hank's buffer to contain 1-2×10^6 cells/ml. […] This accumulation was stimulated by histamine and was blocked by H2 antagonists. The cells were incubated with 0.4-0.5×10^6 cpm ^14 C-AP, with various concentrations of histamine as a stimulant, 1×10^-5 M isobutylmethylxanthine, and the test compound added in a 20 μl volume of buffer or DMSO. The flasks were incubated in a shaking water bath at 37° C. for 20 minutes. Two aliquots were then taken from each flask and cell pellets were collected by centrifugation. The pellets were solubilized with Protosol (New England Nuclear) and radioactivity determined by liquid scintillation spectrometry. Data is presented as the IC50 vhist, the concentration of compound required to inhibit ^14 C-AP accumulation in the histamine stimulated parietal cell by 50%. When dibutyryl cAMP was used to stimulate the cells instead of histamine, a similar inhibition of ^14 C-AP accumulation was measured and the data are presented as the IC50 vcAMP, the concentration required to inhibit ^14 C-AP accumulation in the cAMP stimulated parietal cells by 50%.

[2] = tested on: cAMP stimulated parietal cells; experiment: Isolated parietal cell assay, inhibition of 14C-aminopyrine accumulation, dibutyryl cAMP stimulated; assay type: cell-based, rabbit; details: Example 48, 37° C., read-out: IC50 vcAMP (inhibition of 14C-AP accumulation in cAMP stimulated parietal cells)
Method: as §1, §2

acid output = experiment: Gastric secretion, acid output in pylorus ligated rats; assay type: in vivo, male Charles River Sprague Dawley derived rats; details: Example 50, i.d. or s.c., four hours after pylorus ligation, compared to control; for response vs control in vivo at 40 mg/kg / response vs control in vivo at 20 mg/kg: Rattus norvegicus, 4 h, read-out: % Acid Secreted at mpK; for response vs control in vivo at 40 mg/kg: @ 40 mpK
Method: The inhibitory activity of the compounds on acid output was tested using pylorus ligation in a modification of the procedure of Shay, H. et al., Gastroenterology 26, 906 (1954). Basically, male Charles River Sprague Dawley derived rats weighing 150-300 grams were deprived of food but not water for 18-24 hours prior to use. Water was withheld during the experiment, however. The rats were weighed, anesthetized with ether and the pylorus ligated according to the method of Shay et al., supra. Treatment or vehicle control was then administered intraduodenally (i.d.) or subcutaneously (s.c.). Rats were housed two/cage and sacrificed with CO2 four hours after ligation. The stomachs were removed, rinsed, and contents emptied into a graduated centrifuge tube. The tubes were centrifuged, the volume of gastric juice recorded, and any samples obviously contaminated by feces, food or blood were eliminated. A 1 ml aliquot of gastric juice was titrated with 0.1N NaOH to a pH of 7.0-7.4. The volume of gastric juice secreted, the acid concentration, and the product of the volume times the concentration, i.e., the total amount of acid secreted, were measured.

[3] = target: T1, parietal cell H^+ K^+ ATPase (Oryctolagus cuniculus, UniProt P27112); experiment: Inhibition of parietal cell H+ K+ ATPase; assay type: biochemical, New Zealand white rabbits; details: Example 49; for IC50: given as "50% @ x μM", read-out: % Inhibition at Concentration (H+ K+ ATPase): concentration given for 50% inhibition; for inhibition at 100 µM: @ 10^-4 M, read-out: % Inhibition at Concentration (H+ K+ ATPase)
T1 construct: determined in fundic mucosa from New Zealand white rabbits which were homogenized; from tissue; host or cells: fundic mucosa of New Zealand white rabbits, homogenized; membrane protein
Method: Inhibition of Parietal Cell H^+ K^+ ATPase
The activity was measured in a 1 ml incubation volume containing 50 mM Tris pH 7.4, 2 mM MgCl2, 2 mM Na2 ATP, with or without 20 mM KCl and vehicle control (dimethylsulfoxide) or test compound added in a 0.02 ml volume. Typically, 20-50 μg membrane protein was added and the tubes were preincubated with test compound for 10 minutes at 37° C. Substrate, Na2 ATP, was then added and the tubes were incubated for another 15 minutes at 37° C. The reaction was stopped by the addition of 1 ml 14% trichloroacetic acid and the samples were centrifuged at 2,000 xg for 10 minutes. The amount of inorganic phosphate present in an aliquot of supernatant was determined. H^+ K^+ ATPase activity was determined after correcting for the basal (Mg^++ only) enzyme activity present in the membrane preparation.

T1 sequence (P27112 2-1035 limits assumed): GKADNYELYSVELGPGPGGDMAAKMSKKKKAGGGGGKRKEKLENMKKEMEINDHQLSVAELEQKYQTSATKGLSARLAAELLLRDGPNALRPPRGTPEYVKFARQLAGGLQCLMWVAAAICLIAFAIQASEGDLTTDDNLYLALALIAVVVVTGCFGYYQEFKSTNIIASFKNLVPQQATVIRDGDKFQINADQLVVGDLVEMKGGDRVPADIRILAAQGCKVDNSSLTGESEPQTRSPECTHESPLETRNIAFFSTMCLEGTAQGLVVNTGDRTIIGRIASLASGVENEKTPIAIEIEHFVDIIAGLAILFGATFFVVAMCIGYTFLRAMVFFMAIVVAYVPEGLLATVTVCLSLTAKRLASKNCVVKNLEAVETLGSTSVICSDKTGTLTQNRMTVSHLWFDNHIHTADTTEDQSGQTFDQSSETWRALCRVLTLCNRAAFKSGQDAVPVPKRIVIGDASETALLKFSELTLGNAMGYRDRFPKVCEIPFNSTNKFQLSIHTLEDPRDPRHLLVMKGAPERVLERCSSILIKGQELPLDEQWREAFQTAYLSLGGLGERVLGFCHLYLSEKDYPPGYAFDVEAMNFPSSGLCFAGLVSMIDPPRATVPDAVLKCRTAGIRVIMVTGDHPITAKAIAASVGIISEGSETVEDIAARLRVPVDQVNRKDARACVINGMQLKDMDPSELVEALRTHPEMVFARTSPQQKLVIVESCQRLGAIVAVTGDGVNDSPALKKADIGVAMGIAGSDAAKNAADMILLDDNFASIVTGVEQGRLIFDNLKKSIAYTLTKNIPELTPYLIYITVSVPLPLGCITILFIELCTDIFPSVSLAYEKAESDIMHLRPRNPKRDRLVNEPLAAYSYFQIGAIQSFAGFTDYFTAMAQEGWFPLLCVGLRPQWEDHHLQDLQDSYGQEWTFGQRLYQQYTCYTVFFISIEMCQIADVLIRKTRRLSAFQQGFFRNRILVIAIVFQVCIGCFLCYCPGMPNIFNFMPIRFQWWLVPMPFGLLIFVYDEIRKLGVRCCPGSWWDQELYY
T1 sequence (P18597 whole entry partner): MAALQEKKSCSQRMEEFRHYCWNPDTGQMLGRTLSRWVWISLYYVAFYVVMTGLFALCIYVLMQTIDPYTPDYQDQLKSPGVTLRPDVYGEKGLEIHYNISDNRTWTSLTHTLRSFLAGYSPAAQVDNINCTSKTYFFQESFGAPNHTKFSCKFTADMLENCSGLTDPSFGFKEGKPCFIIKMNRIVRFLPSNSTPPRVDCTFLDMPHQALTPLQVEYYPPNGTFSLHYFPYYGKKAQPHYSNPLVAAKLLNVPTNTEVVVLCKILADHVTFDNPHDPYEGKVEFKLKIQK

IC50 ([1]; Oryctolagus cuniculus, 20 min) [µM] | IC50 ([2]; Oryctolagus cuniculus, 20 min) [µM] | inhibition at 100 µM [3] [%] | IC50 ([1]; 20 minutes) [µM] | IC50 ([2]; 20 minutes) [µM] | Compound | response vs control in vivo at 40 mg/kg (acid output) [%] | IC50 [3] [µM] | response vs control in vivo at 20 mg/kg (acid output; @ 20 mpK) [%] | % Acid Secreted at mpK (acid output; @ 10 mpK) [%] | % Acid Secreted at mpK (acid output; @ 20 mpK) [%]
0.37 | 0.15 | – | – | – | CCN(CC)CCCOc1ccc(/C=C/c2nc3ccccc3s2)cc1 [Example 30, (E)-2-[2-(4-Diethylaminopropoxyphenyl)ethenyl]benzothiazole] | 71 | – | – | – | –
0.26 | 0.15 | – | – | – | C(=C\c1nc2ccccc2o1)/c1ccc(OCCCN2CCCCC2)cc1 [Example 12, (E)-2-[2-[4-(3-Piperidinopropoxy)phenyl]ethenyl]benzoxazole] | 88 | 27 | – | – | –
21 | 0.45 | 46 | – | – | CCCCN(CCCC)CCCOc1ccc(/C=C/c2nc3ccccc3s2)cc1 [Example 28, (E)-2-[2-(4-Dibutylaminopropoxyphenyl)ethenyl]benzothiazole] | – | – | 49 | 25 | –
0.29 | 0.53 | 52 | – | – | CCCCN(CCCC)CCCOc1ccc(/C=C/c2nc3cc(C)ccc3s2)cc1 [Example 34, (E)-2-[2-(4-Dibutylaminopropoxyphenyl)ethenyl]-5-methylbenzothiazole] | – | – | 14 | – | –
0.26 | 0.21 | – | – | – | CCCN(CCC)CCCOc1ccc(/C=C/c2nc3ccccc3s2)cc1 [Example 29, (E)-2-[2-(4-Dipropylaminopropoxyphenyl)ethenyl]benzothiazole] | – | – | 30 | – | –
0.26 | 0.46 | – | – | – | CCCCN(CCCC)CCCOc1ccc(/C=C/c2nc3ccc(OC)cc3s2)cc1 [Example 35, (E)-2-[2-(4-Dibutylaminopropoxyphenyl)ethenyl]-6-methoxybenzothiazole] | – | 60 | 31 | – | –
0.4 | 0.5 | 52 | – | – | CCCCN(CCCC)CCCOc1ccc(/C=C/c2nc3cc(Cl)ccc3s2)cc1 [Example 36, (E)-2-[2-(4-Dibutylaminopropoxyphenyl)ethenyl]-5-chlorobenzothiazole] | 26 | – | – | – | –
1.2 | 0.41 | – | – | – | CN1CCN(CCCOc2cccc(/C=C/c3nc4ccccc4o3)c2)CC1 [Example 2, (E)-2-[2-[3-[3-(4-Methylpiperazino)propoxy]phenyl]ethenyl]benzoxazole] | – | 94 | 9 | – | –
0.15 | 0.15 | 17 | – | – | CCCCN(CCCC)CCCOc1ccc(/C=C/c2nc3ccccc3o2)cc1 [Example 8, (E)-2-[2-(4-Dibutylaminopropoxyphenyl)ethenyl]benzoxazole] | 96 | – | – | 44 | –
0.26 | 0.54 | 43 | – | – | CCCCN(CCCC)CCOc1ccc(/C=C/c2nc3ccccc3o2)cc1 [Example 17, (E)-2-[2-(4-Dibutylaminoethoxyphenyl)ethenyl]benzoxazole] | – | – | 43 | – | –
0.26 | 0.34 | – | – | – | CCCCN(CCCC)CCCOc1ccc(/C=C/c2nc3cc(C)ccc3o2)cc1 [Example 15, (E)-2-[2-(4-Dibutylaminopropoxyphenyl)ethenyl]-5-methylbenzoxazole] | 88 | 27 | – | – | –
0.6 | 0.8 | 43 | – | – | COc1ccccc1N1CCN(CCCOc2ccc(/C=C/c3nc4ccccc4o3)cc2)CC1 [Example 14] | – | – | 8 | – | –
– | – | – | 0.41 | 1.4 | (E)-2-[2-[4-(3-Methylbenzylaminopropoxy)phenyl]ethenyl]benzoxazole [Example 13] | – | 66 | – | – | 34
0.21 | 0.34 | – | – | – | C(=C\c1nc2ccccc2o1)/c1cccc(OCCCn2ccnc2)c1 [Example 4] | – | 10 | 38 | – | –
0.32 | 0.98 | 20 | – | – | CCN(CC)CCCOc1ccc(/C=C/c2nc3ccccc3o2)cc1 [Example 11, (E)-2-[2-(4-Diethylaminopropoxyphenyl)ethenyl]benzoxazole] | 54 | – | – | – | –
0.13 | 0.34 | – | – | – | C(=C\c1nc2ccccc2s1)/c1ccc(OCCCn2ccnc2)cc1 [Example 32, (E)-2-[2-(4-(1H-Imidazol-1-yl)propoxyphenyl)ethenyl]benzothiazole] | – | – | 22 | – | –
0.25 | 2.6 | – | – | – | CCCCN(CCCC)CCCOc1ccc(-c2nc3ccccc3s2)cc1 [Example 43, 2-(4-Dibutylaminopropoxyphenyl)benzothiazole] | – | 18 | – | – | –

Compound | IC50 ([1]; Oryctolagus cuniculus, 20 min) [µM] | IC50 ([2]; Oryctolagus cuniculus, 20 min) [µM] | inhibition at 100 µM [3] [%] | IC50 ([1]; 20 minutes) [µM] | IC50 ([2]; 20 minutes) [µM] | response vs control in vivo at 40 mg/kg (acid output) [%] | IC50 [3] [µM] | response vs control in vivo at 20 mg/kg (acid output; @ 20 mpK) [%] | % Acid Secreted at mpK (acid output; @ 10 mpK) [%] | % Acid Secreted at mpK (acid output; @ 20 mpK) [%]
C(=C\c1nc2ccccc2s1)/c1ccc(OCCCCN2CCCC2)cc1 [Example 42, (E)-2-[2-(4-Pyrrolidinobutoxyphenyl)ethenyl]benzothiazole] | 0.16 | 0.26 | – | – | – | 20 | 17 | – | – | –
C(=C\c1nc2ccccc2o1)/c1cccc(OCCCCn2ccnc2)c1 [Example 6] | 0.28 | 0.23 | – | – | – | – | 13 | 45 | – | –
CCN(CC)CCCCOc1ccc(/C=C/c2nc3ccccc3s2)cc1 [Example 41] | 0.18 | 0.35 | – | – | – | – | 44 | 52 | – | –
CCN(CC)CCCCOc1ccc(/C=C/c2nc3ccccc3o2)cc1 [Example 22] | 0.08 | 0.12 | – | – | – | – | 74 | 31 | – | –
C(=C\c1nc2ccccc2s1)/c1ccc(OCCCCn2ccnc2)cc1 [Example 40, (E)-2-[2-(4-(1H-Imidazol-1-yl)butoxyphenyl)ethenyl]benzothiazole] | 0.2 | 0.26 | – | – | – | 17 | – | – | – | –
CCCCN(CCCC)CCCCOc1ccc(/C=C/c2nc3ccccc3o2)cc1 [Example 18] | 0.18 | < 10 | – | – | – | – | 20 | – | 14 | –
C(=C\c1nc2ccccc2o1)/c1ccc(OCCCCN2CCCCC2)cc1 [Example 19] | 0.17 | 0.33 | – | – | – | – | 40 | 42 | – | –
C(=C\c1nc2ccccc2o1)/c1ccc(OCCCCCn2ccnc2)cc1 [Example 24] | 0.28 | 0.23 | – | – | – | – | 13 | 45 | – | –
COc1ccc2nc(/C=C/c3cccc(OCCCCn4ccnc4)c3)oc2c1 [Example 7, (E)-2-[2-(3-(1H-Imidazol-1-yl)butoxyphenyl)ethenyl]-6-methoxybenzoxazole] | 0.12 | 0.18 | – | – | – | – | 74 | – | – | –
